Results reported in patent publication US9539233B2, “Gallium formulation for the treatment and prevention of infectious diseases” (Aridis Pharmaceuticals Inc., priority 2009, dated 2017).
Where two headings read alike, the source gives them in different places.

Key:
P. aeruginosa = conditions: for MIC: iron-starved BM-2 broth
B. anthracis 7702 cells = assay type: cell-based; conditions: 1:1 gallium-to-citrate molar ratio, approximately 20 hours of growth
Pa [1] = conditions: against Pa; cited from earlier work
Pa [2] = conditions: i.t. inoculation of a lethal dose of Pa followed by nasal instillation of a bolus of liquid; mouse; cited from earlier work

C[C@H]1[C@H](NC(=O)/C(=N\OC(C)(C)C(=O)O)c2csc(N)n2)C(=O)N1S(=O)(=O)O [Aztreonam]
S: susceptibility category (R/S/I) (P. aeruginosa; Mucoid Strain 20JR) | susceptibility category (R/S/I) (P. aeruginosa; Mucoid Strain 35LK) | susceptibility category (R/S/I) (P. aeruginosa; Non-mucoid Strain 30IX) | susceptibility category (R/S/I) (P. aeruginosa; Non-mucoid Strain 30JS)
I: susceptibility category (R/S/I) (P. aeruginosa; Mucoid Strain 47JS) | susceptibility category (R/S/I) (P. aeruginosa; Non-mucoid Strain 55HY)
R: susceptibility category (R/S/I) (P. aeruginosa; Mucoid Strain 41JQ) | susceptibility category (R/S/I) (P. aeruginosa; Mucoid Strain 62LL) | susceptibility category (R/S/I) (P. aeruginosa; Mucoid Strain 96JC) | susceptibility category (R/S/I) (P. aeruginosa; Mucoid Strain 97JE) | susceptibility category (R/S/I) (P. aeruginosa; Non-mucoid Strain 9HN) | susceptibility category (R/S/I) (P. aeruginosa; Non-mucoid Strain 38LL) | susceptibility category (R/S/I) (P. aeruginosa; Non-mucoid Strain 39IV) | susceptibility category (R/S/I) (P. aeruginosa; Non-mucoid Strain 46IV)

O=[N+]([O-])[O-].O=[N+]([O-])[O-].O=[N+]([O-])[O-].[Ga+3] [Gallium, gallium nitrate]
<32 µg/mL: MIC (P. aeruginosa; Mucoid Strain 41JQ, 24 hours)
0.003: OD600 nm (B. anthracis 7702 cells; Gallium concentration 88.9 μM)
<1 µg/mL: MIC (P. aeruginosa; Mucoid Strain 20JR, 24 hours) | MIC (P. aeruginosa; Mucoid Strain 35LK, 24 hours) | MIC (P. aeruginosa; Mucoid Strain 47JS, 24 hours) | MIC (P. aeruginosa; Mucoid Strain 62LL, 24 hours) | MIC (P. aeruginosa; Mucoid Strain 96JC, 24 hours) | MIC (P. aeruginosa; Mucoid Strain 97JE, 24 hours) | MIC (P. aeruginosa; Non-mucoid Strain 30IX, 24 hours) | MIC (P. aeruginosa; Non-mucoid Strain 30JS, 24 hours) | MIC (P. aeruginosa; Non-mucoid Strain 38LL, 24 hours) | MIC (P. aeruginosa; Non-mucoid Strain 39IV, 24 hours) | MIC (P. aeruginosa; Non-mucoid Strain 46IV, 24 hours) | MIC (P. aeruginosa; Non-mucoid Strain 55HY, 24 hours)
<2 µg/mL: MIC (P. aeruginosa; Non-mucoid Strain 9HN, 24 hours)
approximately 0.7 μg/mL: bactericidal concentration (MBC) (Pa [1]) | minimum inhibitory concentration (MIC90) (Pa [1])
0.000: OD600 nm (B. anthracis 7702 cells; Gallium concentration 6.8 μM, TSB, 37° C.) | OD600 nm (B. anthracis 7702 cells; Gallium concentration 23.3 μM) | OD600 nm (B. anthracis 7702 cells; Gallium concentration 614.8 μM) | OD600 nm (B. anthracis 7702 cells; Gallium concentration 1709.9 μM)
0.001: OD600 nm (B. anthracis 7702 cells; Gallium concentration 27.1 μM)
good protection: protection (Pa [2])

NC[C@H]1O[C@H](O[C@H]2[C@H](O)[C@@H](O[C@H]3O[C@H](CO)[C@@H](O)[C@H](N)[C@H]3O)[C@H](N)C[C@@H]2N)[C@H](N)C[C@@H]1O [Tobramycin]
128 µg/mL: MIC (P. aeruginosa; Pseudomonas aeruginosa, 24 h, Non-mucoid Strain 9HN) | MIC (P. aeruginosa; Pseudomonas aeruginosa, 24 h, Non-mucoid Strain 55HY)
R: susceptibility category (R/S/I) (P. aeruginosa; Mucoid Strain 41JQ) | susceptibility category (R/S/I) (P. aeruginosa; Mucoid Strain 47JS) | susceptibility category (R/S/I) (P. aeruginosa; Mucoid Strain 96JC) | susceptibility category (R/S/I) (P. aeruginosa; Mucoid Strain 97JE) | susceptibility category (R/S/I) (P. aeruginosa; Non-mucoid Strain 9HN) | susceptibility category (R/S/I) (P. aeruginosa; Non-mucoid Strain 30IX) | susceptibility category (R/S/I) (P. aeruginosa; Non-mucoid Strain 46IV) | susceptibility category (R/S/I) (P. aeruginosa; Non-mucoid Strain 55HY)
I: susceptibility category (R/S/I) (P. aeruginosa; Mucoid Strain 35LK) | susceptibility category (R/S/I) (P. aeruginosa; Non-mucoid Strain 38LL)
S: susceptibility category (R/S/I) (P. aeruginosa; Mucoid Strain 20JR) | susceptibility category (R/S/I) (P. aeruginosa; Mucoid Strain 62LL) | susceptibility category (R/S/I) (P. aeruginosa; Non-mucoid Strain 30JS) | susceptibility category (R/S/I) (P. aeruginosa; Non-mucoid Strain 39IV)
